Results from US20240252581A1, “COMPOSITIONS AND METHODS FOR TREATING RESPIRATORY DISTRESS” (S.I.S. SHULOV INNOVATIVE SCIENCE LTD., priority 2021, published 2024).
Several values for one entry are separate records, joined by “and”; a condition that tells them apart may be missing. Identical values can stand only once. Square brackets hold non-standard residues; d marks the D form. Peptide text beside a SMILES is read from it. * marks the point of attachment. pGlu = O=C1CC[C@@H](C(=O)O)N1; Octanoyl = CCCCCCCC(=O)*

Tested on: inflammatory cytokines in BALF
Assay: LPS-induced acute lung injury / ARDS mouse model: BALF cytokine concentrations (multiplex ELISA)
Format: in vivo, BALB/c mice
Settings: BALF
Experimental: In order to test the efficacy of ZEP3 sodium on lung inflammation, the lipopolysaccharide (LPS)-induced acute lung injury model was used. In particular, LPS was administered intratracheally at doses of 10 or 40 mg/kg body weight (BW) corresponding to 0.2 or 0.8 mg/mouse, respectively.
ZEP3 sodium was administered by inhalation (INH) at doses of 25 or 250 mg/kg BW (0.5 or 5 mg/mouse, respectively), or intratracheally (IT) at doses of 5 or 20 mg/kg BW (0.1 or 0.4 mg/mouse, respectively) 6 hours after LPS administration and its effect was measured 72 hours following administration in the branchial alveolar fluid (BALF) using FACS instrumentation.
To detect cytokine release in lungs fluid, cytokine concentrations were assessed in BALF samples using high sensitivity multiplex ELISA assays for: IFN-γ, IL-1α, IL-5, IL-6, IL-10, IL-12 (p70), IL-17A, KC, MCP-1, TNF-α, IP-10, RANTES, G-CSF, MIP-1α and RANTES. ZEP3Na administered intratracheally at 0.1 and 0.4 mg per mouse after instillation of 0.2 mg LPS inhibited the concentration of following interleukins: IL-1α, IL-6, IL-10, IL-12, IL-17, KC, MCP-1, TNF-α and G-CSF.

[1] = Group 2: ZEP3Na 0.1 mg IT, no LPS, group mean
[2] = Group 2: ZEP3Na 0.1 mg IT, no LPS, individual mice
[3] = Group 3: ZEP3Na 0.4 mg IT, no LPS, group mean
[4] = Group 3: ZEP3Na 0.4 mg IT, no LPS, individual mice
[5] = Group 4: LPS 0.8 mg + ZEP3Na 0.1 mg IT, group mean
[6] = Group 4: LPS 0.8 mg + ZEP3Na 0.1 mg IT, individual mice
[7] = Group 5: LPS 0.8 mg + ZEP3Na 0.4 mg IT, group mean
[8] = Group 5: LPS 0.8 mg + ZEP3Na 0.4 mg IT, individual mice
[9] = Group 8: LPS 0.2 mg + ZEP3Na 0.1 mg IT, group mean
[10] = Group 8: LPS 0.2 mg + ZEP3Na 0.1 mg IT, individual mice
[11] = Group 9: LPS 0.2 mg + ZEP3Na 0.4 mg IT, group mean

With `CCCCCCCC(=O)NCCCC[C@H](NC(=O)[C@H](Cc1c[nH]c2ccccc12)NC(=O)[C@H](CC(N)=O)NC(=O)[C@@H]1CCC(=O)N1)C(=O)O` [ZEP3Na, pGlu-Asn-Trp-Lys(Octanoyl)-ONa] ([pGlu]NWK(Octanoyl)-OH) the “production of IL-12 and TNF-α” value (0.8 mg LPS treated mice, 0.1 and 0.4 mg) was “significantly inhibited”, the “G-CSF” value [1] was 2.60 pg/mL and the “IL-12 (p70)” value [1] was 7.31 pg/mL. The “IL-17A” value [1] was 0.35 pg/mL, the “KC” value [1] was 59.28 pg/mL and the “MCP-1” value [1] was 0.00 pg/mL. For the same compound, the “G-CSF” value [2] was 2.37 pg/ml (2×) and 1.99 pg/ml (2×) and 5.06 pg/ml and 2.76 pg/ml (2×) and 3.53 pg/ml and 3.15 pg/ml, the “G-CSF (pg/ml)” value [2] was “undetected” and the “IL-12 (p70)” value [2] was 9.22 pg/ml (2×) and 9.10 pg/ml and 8.79 pg/ml (2×) and 7.39 pg/ml and 5.38 pg/ml and 4.32 pg/ml and 10.92 pg/ml. The “IL-12 (p70) (pg/ml)” value [2] was “undetected”, the “IL-17A” value [2] was 0.63 pg/mL and 2.12 pg/mL and 0.73 pg/mL and the “IL-17A (pg/ml)” value [2] was “undetected”. The “KC” value [2] was 46.08 pg/mL and 58.58 pg/mL and 58.91 pg/mL and 89.58 pg/mL and 95.87 pg/mL and 47.76 pg/mL and 43.47 pg/mL and 64.27 pg/mL and 42.44 pg/mL and 45.89 pg/mL, the “MCP-1 (pg/ml)” value [2] was “undetected” and the “G-CSF” value [3] was 3.26 pg/mL. For the same compound, the “IL-12 (p70)” value [3] was 7.54 pg/mL, the “IL-17A” value [3] was 1.26 pg/mL and the “KC” value [3] was 70.95 pg/mL. For the same compound, the “MCP-1” value [3] was 4.89 pg/mL, the “G-CSF” value [4] was 7.65 pg/ml and 3.47 pg/ml (2×) and 2.20 pg/ml (2×) and 6.40 pg/ml and 3.89 pg/ml and the “G-CSF (pg/ml)” value [4] was “undetected”. The “IL-12 (p70)” value [4] was 8.49 pg/ml (2×) and 7.27 pg/ml and 7.92 pg/ml and 5.27 pg/ml and 9.45 pg/ml and 7.21 pg/ml and 5.22 pg/ml and 8.54 pg/ml, the “IL-17A” value [4] was 2.02 pg/ml and 1.13 pg/ml and 1.36 pg/ml and 1.47 pg/ml and 1.20 pg/ml (2×) and 1.06 pg/ml and 0.73 pg/ml and 1.14 pg/ml and the “KC” value [4] was 56.01 pg/mL and 58.30 pg/mL and 63.33 pg/mL and 62.30 pg/mL and 71.12 pg/mL and 68.10 pg/mL and 52.39 pg/mL and 46.36 pg/mL and 160.65 pg/mL. The “MCP-1” value [4] was 11.53 pg/ml and 11.29 pg/ml (2×) and 9.93 pg/ml, the “MCP-1 (pg/ml)” value [4] was “undetected” and the “G-CSF” value [5] was 138.16 pg/mL. For the same compound, the “IL-12 (p70)” value [5] was 124.09 pg/mL, the “IL-17A” value [5] was 837.99 pg/mL and the “KC” value [5] was 466.06 pg/mL. For the same compound, the “MCP-1” value [5] was 70.18 pg/mL, the “G-CSF” value [6] was 250.42 pg/mL and 141.30 pg/mL and 164.43 pg/mL and 89.05 pg/mL and 416.35 pg/mL and 50.11 pg/mL and 131.80 pg/mL and the “G-CSF (pg/ml)” value [6] was “undetected”. For the same compound, the “IL-12 (p70)” value [6] was 6.33 pg/mL and 5.38 pg/mL and 235.43 pg/mL and 103.27 pg/mL and 192.86 pg/mL and 41.94 pg/mL and 414.83 pg/mL and 27.99 pg/mL and 88.80 pg/mL, the “IL-17A” value [6] was 1287.47 pg/mL and 55.37 pg/mL and 719.90 pg/mL and 51.28 pg/mL and 5285.06 pg/mL and 77.04 pg/mL and 65.83 pg/mL and the “IL-17A (pg/ml)” value [6] was “undetected”. The “KC” value [6] was 39.18 pg/mL and 29.08 pg/mL and 847.35 pg/mL and 522.41 pg/mL and 798.01 pg/mL and 253.77 pg/mL and 831.88 pg/mL and 234.34 pg/mL and 638.49 pg/mL, the “MCP-1” value [6] was 70.21 pg/mL and 76.09 pg/mL and 93.90 pg/mL and 58.01 pg/mL and 114.01 pg/mL and 53.91 pg/mL and 165.51 pg/mL and the “MCP-1 (pg/ml)” value [6] was “undetected”. The “G-CSF” value [7] was 190.32 pg/mL, the “IL-12 (p70)” value [7] was 102.59 pg/mL and the “IL-17A” value [7] was 204.85 pg/mL. The “KC” value [7] was 773.23 pg/mL, the “MCP-1” value [7] was 190.69 pg/mL and the “G-CSF” value [8] was 491.06 pg/mL and 209.62 pg/mL and 268.52 pg/mL and 300.90 pg/mL and 7.65 pg/mL and 3.47 pg/mL and 124.37 pg/mL and 116.99 pg/mL. The “IL-12 (p70)” value [8] was 7.58 pg/mL and 215.64 pg/mL and 368.44 pg/mL and 12.63 pg/mL and 7.60 pg/mL and 194.02 pg/mL and 14.83 pg/mL, the “IL-12 (p70) (pg/ml)” value [8] was “undetected” and the “IL-17A” value [8] was 7.23 pg/mL and 265.69 pg/mL and 1207.05 pg/mL and 13.05 pg/mL and 2.04 pg/mL and 0.52 pg/mL and 136.95 pg/mL and 6.24 pg/mL. For the same compound, the “KC” value [8] was 1115.74 pg/mL and 1099.42 pg/mL and 1195.30 pg/mL and 488.61 pg/mL and 54.20 pg/mL and 57.06 pg/mL and 981.92 pg/mL and 1193.59 pg/mL, the “MCP-1” value [8] was 810.24 pg/mL and 166.84 pg/mL and 79.29 pg/mL and 307.60 pg/mL and 15.45 pg/mL and 83.52 pg/mL and 62.54 pg/mL and the “MCP-1 (pg/ml)” value [8] was “undetected”. For the same compound, the “G-CSF” value [9] was 187.95 pg/mL, the “IL-12 (p70)” value [9] was 264.97 pg/mL and the “IL-17A” value [9] was 724.27 pg/mL. The “KC” value [9] was 1023.71 pg/mL, the “MCP-1” value [9] was 133.24 pg/mL and the “G-CSF” value [10] was 175.22 pg/mL and 144.90 pg/mL and 109.99 pg/mL and 383.77 pg/mL and 239.49 pg/mL and 199.64 pg/mL and 249.05 pg/mL and 93.60 pg/mL and 177.33 pg/mL and 106.48 pg/mL. For the same compound, the “IL-12 (p70)” value [10] was 247.16 pg/mL and 386.37 pg/mL and 66.34 pg/mL and 199.27 pg/mL and 322.18 pg/mL and 422.04 pg/mL and 317.94 pg/mL and 97.45 pg/mL and 202.28 pg/mL and 388.69 pg/mL, the “IL-17A” value [10] was 553.70 pg/mL and 1615.14 pg/mL and 285.28 pg/mL and 1776.16 pg/mL and 862.84 pg/mL and 989.92 pg/mL and 458.49 pg/mL and 111.01 pg/mL and 281.41 pg/mL and 308.73 pg/mL and the “KC” value [10] was 782.52 pg/mL and 1528.47 pg/mL and 503.00 pg/mL and 672.71 pg/mL and 1548.79 pg/mL and 1057.28 pg/mL and 1346.32 pg/mL and 808.21 pg/mL and 1086.03 pg/mL and 903.77 pg/mL. The “MCP-1” value [10] was 107.46 pg/mL and 158.19 pg/mL and 142.05 pg/mL and 85.01 pg/mL and 91.65 pg/mL and 135.00 pg/mL and 216.90 pg/mL and 114.81 pg/mL and 109.95 pg/mL and 171.38 pg/mL, the “G-CSF” value [11] was 172.12 pg/mL and the “IL-12 (p70)” value [11] was 161.01 pg/mL. For the same compound, the “IL-17A” value [11] was 584.07 pg/mL.
